Counter-ions that a name gives are not always drawn. Like-named read-outs stand apart in the source and are kept apart here.
Key:
[1] = system: Mycobacterium tuberculosis; assay: Mycobacterium tuberculosis Serum Shift MIC Assay (Protocol 5); format: cell-based; conditions: ATCC 35801 / ERDMAN
Description: Protocol 5. Protocol for Mycobacterium tuberculosis Serum Shift MIC Assay
Media Prep: • 1. […] It was important that all media and supplements were sterilized prior to MICs. • 2. Prepared all media below and inoculated as described in next section. Tested all compounds against Mtb using each media. • a. […] 7H9+0.2% glycerol+2 g/L dextrose+0.85 g/L NaCl+0.003 g/L catalase (0% FBS). • c. 2×7H9+0.2% glycerol+2 g/L dextrose+0.85 g/L NaCl+0.003 g/L catalase combined with equal volume Fetal Bovine Serum (50% FBS).
Inoculum Prep: • 1. Using BBL Prompt, picked 5-10 well-separated colonies and inoculated 1 ml sterile saline that came in the kit. Typically plates were two to three weeks of age when used for this assay due to the slow growth of this organism in culture. • 2. Vortexed well, then sonicated in water bath for 30 sec providing a suspension of ˜10^8 cells/ml. Actual density could be confirmed by plating out dilutions of this suspension. • 3. Prepared inoculum in each of the three media formulations by diluting the BBL Prompt suspension 1/200 (for example: transferred 0.2 ml of cells to 40 ml of medium) to obtain a starting cell density of […]. • 4. Used 100 μl cells (˜5×10^4 cells) to inoculate each microtiter well containing 1 μl of drug in DMSO (see below).
Drug Dilutions, Inoculation, MIC Determination: • 1. Control drug stocks Isoniazid and Novobiocin were prepared at 10 mM in 100% DMSO while Ciprofloxacin and Rifampin were prepared at 1 mM in 50% DMSO and 100% DMSO, respectively. Prepared dilutions—dispensed 100 μL of the stock solution into the first column of a 96-well plate. Prepared 11-step, 2-fold serial dilutions across the row for each compound by transferring 50 μl from column 1 into 50 μl of DMSO in column 2. Continued to transfer 50 μL from column 2 through column 11 while mixing and changing tips at each column. Left column 12 with DMSO only as a control. • 2. Transferred 1 μl of each dilution into an empty microtiter well prior to the addition of 100 μl of cells. The starting concentration of Isoniazid and Novobiocin was 100 μM after the dilution into medium+cells; the starting concentration of Ciprofloxacin and Rifampin was 10 μM after the dilution into medium+cells. Compound concentrations decreased in 2× steps moving across the rows of the microtiter plate. […] Measured background fluorescence at Excitation 492 nm, Emission 595 nm and returned the plate to the incubator for another 24 hours.
After 24 hours the fluorescence of each well was measured at Excitation 492 nm, Emission 595 nm.
Percent inhibition by a given compound was calculated as follows: Percent inhibition=100−([well fluorescence-average background fluorescence]/[DMSO control−average background fluorescence]×100). […]

[2] = system: M. avium; assay: MIC in bacterial broth culture (7H9 with ADC, visual or resazurin); format: cell-based; conditions: Table 31, duplicate values

Work on `CCNC(=O)Nc1nc2cc(-c3cnc(C(C)(C)O)nc3)c(F)c([C@H]3CCCO3)c2[nH]1` [Compound 23A, methanesulfonic acid salt of 1-ethyl-3-[6-fluoro-5-[2-(1-hydroxy-1-methyl-ethyl)pyrimidin-5-yl]-7-[(2R)-tetrahydrofuran-2-yl]-1H-benzimidazol-2-yl]urea] yielded an MIC ([1]; M. tuberculosis Erdman ATCC 35801, read-out: MIC) of 0.03 µg/mL, an MIC ([1]; M. tuberculosis Erdman ATCC 35801 with Mouse Serum) of 0.5 µg/mL and an MIC ([2]; Mycobacterium avium, M. avium 103, read-out: MIC) of 0.12 µg/mL. It also gave an MIC ([2]; Mycobacterium avium, M. avium 3404.4, read-out: MIC) of 0.23 µg/mL, an MIC ([2]; Mycobacterium avium, M. avium Far, read-out: MIC) of 0.23 µg/mL and an MIC ([2]; M. avium 103) of 0.23 µg/mL.
